Experimental findings from US8969389B2, “Substituted 6-methylnicotinamides as mGluR5 positive allosteric modulators” (Vanderbilt University, priority 2010, dated 2015) are described below.

Where only a bound is given, the exact number is not on record here.

The target in the first experiment is T1, rat mGluR5 (Rattus norvegicus, UniProt P31424).
T1 construct: expressed in transfected cells; host or cells: HEK (human embryonic kidney) cells
T1 sequence (P31424 21-1203): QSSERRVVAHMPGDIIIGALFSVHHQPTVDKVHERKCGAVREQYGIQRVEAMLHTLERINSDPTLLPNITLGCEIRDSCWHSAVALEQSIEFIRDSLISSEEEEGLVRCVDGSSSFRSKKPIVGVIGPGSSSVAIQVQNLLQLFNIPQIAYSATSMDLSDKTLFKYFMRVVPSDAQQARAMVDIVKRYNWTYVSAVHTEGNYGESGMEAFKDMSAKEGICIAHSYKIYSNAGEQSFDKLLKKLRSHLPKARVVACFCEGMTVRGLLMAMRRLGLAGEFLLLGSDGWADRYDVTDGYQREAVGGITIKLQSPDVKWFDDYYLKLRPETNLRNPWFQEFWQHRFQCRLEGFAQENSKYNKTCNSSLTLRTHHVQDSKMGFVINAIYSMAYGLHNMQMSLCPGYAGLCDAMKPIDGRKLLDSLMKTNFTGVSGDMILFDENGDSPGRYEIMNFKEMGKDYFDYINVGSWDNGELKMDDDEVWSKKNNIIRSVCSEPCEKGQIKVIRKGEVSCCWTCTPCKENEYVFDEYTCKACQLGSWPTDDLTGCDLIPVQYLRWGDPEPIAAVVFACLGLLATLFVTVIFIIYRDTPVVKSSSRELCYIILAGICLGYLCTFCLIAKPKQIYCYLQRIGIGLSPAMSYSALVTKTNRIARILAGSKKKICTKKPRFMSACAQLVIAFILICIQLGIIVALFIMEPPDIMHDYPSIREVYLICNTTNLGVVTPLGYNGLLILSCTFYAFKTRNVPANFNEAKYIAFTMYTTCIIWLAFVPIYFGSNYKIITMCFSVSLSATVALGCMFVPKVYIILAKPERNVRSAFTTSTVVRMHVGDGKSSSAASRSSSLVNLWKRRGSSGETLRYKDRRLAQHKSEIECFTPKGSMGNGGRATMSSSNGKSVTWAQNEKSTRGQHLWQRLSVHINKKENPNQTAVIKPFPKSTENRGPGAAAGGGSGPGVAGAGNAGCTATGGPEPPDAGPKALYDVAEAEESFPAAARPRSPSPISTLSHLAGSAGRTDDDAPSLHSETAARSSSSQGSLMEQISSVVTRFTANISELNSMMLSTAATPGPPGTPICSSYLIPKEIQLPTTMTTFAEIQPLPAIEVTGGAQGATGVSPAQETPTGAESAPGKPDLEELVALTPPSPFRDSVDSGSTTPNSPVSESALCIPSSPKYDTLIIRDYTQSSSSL
Put plainly: Potentiation of glutamate response in HEK cells transfected with rat mGluR5 (Ca2+ fluorescence, FDSS). In kind it is cell-based. The note with it: (R) and (S) enantiomers, Tables 3A/3B; read-out: mGluR5 EC50. The method, then:
Human embryonic kidney (HEK) cells transfected with rat mGluR5 were plated in clear bottom assay plates for assay in a Functional Drug Screening System (FDSS). In the alternative assay, HEK cells transfected with human mGluR5 (H10H cell line) were plated for assay in the FDSS. […] The cells were loaded with a Ca^2+-sensitive fluorescent dye (e.g., Fluo-4), and the plates were washed and placed in the FDSS instrument. After establishment of a fluorescence baseline for twelve seconds, the compounds of the present invention were added to the cells, and the response in cells was measured. Five minutes later, an mGluR5 agonist (e.g., glutamate, 3,5-dihydroxyphenylglycine, or quisqualate) was added to the cells, and the response of the cells was measured. Potentiation of the agonist response of mGluR5 by the compounds in the present invention was observed as an increase in response to non-maximal concentrations of agonist (here, glutamate) in the presence of compound compared to the response to agonist in the absence of compound.
The above described assay operated in two modes. In the first mode, a range of concentrations of the present compounds were added to cells, followed by a single fixed concentration of agonist. If a compound acted as a potentiator, an EC50 value for potentiation and a maximum extent of potentiation by the compound at this concentration of agonist was determined by non-linear curve fitting. In the second mode, several fixed concentrations of the present compounds were added to various wells on a plate, followed by a range of concentrations of agonist for each concentration of present compound; the EC50 values for the agonist at each concentration of compound were determined by non-linear curve fitting. A decrease in the EC50 value of the agonist with increasing concentrations of the present compounds (a leftward shift of the agonist concentration-response curve) is an indication of the degree of mGluR5 potentiation at a given concentration of the present compound. An increase in the EC50 value of the agonist with increasing concentrations of the present compounds (a rightward shift of the agonist concentration-response curve) is an indication of the degree of mGluR5 antagonism at a given concentration of the present compound. The second mode also indicates whether the present compounds also affect the maximum response to mGluR5 to agonists.
For orientation: EC50 means the concentration needed to bring the measured effect to its halfway point. As to `C[C@@H](NC(=O)c1ccc(COc2cccc(F)c2)nc1)C1CCCCC1` [Example 11a, (R)-N-(1-cyclohexylethyl)-6-((3-fluorophenoxy)methyl)nicotinamide], the half-maximal effective concentration (EC50) stood at 0.13 µM. Take `C[C@H](NC(=O)c1ccc(COc2cccc(F)c2)nc1)C1CCCCC1` [Example 11b, (S)-N-(1-cyclohexylethyl)-6-((3-fluorophenoxy)methyl)nicotinamide]: the EC50 was greater than 10 µM.

`C[C@@H](NC(=O)c1ccc(COc2cc(F)cc(F)c2)nc1)C1CCCCC1` [Example 12a, (R)-N-(1-cyclohexylethyl)-6-((3,5-difluorophenoxy)methyl)nicotinamide]: the concentration giving a half-maximal response (EC50) is 0.309 µM. For `C[C@H](NC(=O)c1ccc(COc2cc(F)cc(F)c2)nc1)C1CCCCC1` [Example 12b, (S)-N-(1-cyclohexylethyl)-6-((3,5-difluorophenoxy)methyl)nicotinamide], the EC50 was greater than 10 µM.

The same experiment, now with this note: HEK cells transfected with rat mGluR5; read-out: rmGlu5 PAM EC50.
Consider `O=C(NC1CC2CCC1C2)c1ccc(COc2cccc(F)c2)nc1` (stereo not shown), for which the concentration for a half-maximal effect (EC50) turned out to be 0.0759 µM.

As for `C[C@@H](NC(=O)c1ccc(COc2cccc(F)c2)nc1)C1CCC1`, the EC50 came out at 0.138 µM. As for `CC(C)[C@@H](C)NC(=O)c1ccc(COc2cccc(F)c2)nc1`, the EC50 came to 0.158 µM.

As for `C[C@@H](NC(=O)c1ccc(COc2ccccc2F)nc1)C1CCCCC1`, the concentration for a half-maximal effect (EC50) came to 0.16 µM. On to `CC(NC(=O)c1ccc(COc2ccccc2)nc1)C1CCCCC1` (stereo not shown), for which the concentration for a half-maximal effect (EC50) amounted to 0.188 µM. On the same count and under the same terms, then `C[C@@H](NC(=O)c1ccc(COc2cccc(Cl)c2)nc1)C1CCCCC1`, with 0.21 µM; and `C[C@@H](NC(=O)c1ccc(COc2cccc(C#N)c2)nc1)C1CCCCC1`, with 0.22 µM.

With `O=C(NC1C2CC3CC(C2)CC1C3)c1ccc(COc2ccccc2)nc1` (stereo not shown), the EC50 was found to be 0.288 µM. As for `CC(C)(C)CCNC(=O)c1ccc(COc2cccc(F)c2)nc1`, the concentration giving a half-maximal response (EC50) was 0.302 µM.

For the molecule `C[C@@H](NC(=O)c1ccc(COc2ccc(F)cc2)nc1)C1CCCCC1`, the EC50 was determined as 0.36 µM.

For the molecule `O=C(NC1CCCCC1)c1ccc(COc2cccc(F)c2)nc1`, the EC50 was determined as 0.447 µM.

For `O=C(Nc1ccccc1F)c1ccc(COc2ccccc2)nc1`, the EC50 worked out at 0.501 µM. Same read-out and setting: then `O=C(Nc1ccc(F)cc1F)c1ccc(COc2ccccc2)nc1`, with 0.501 µM; and `O=C(NCC1CCCCC1)c1ccc(COc2ccccc2)nc1`, with 0.575 µM; and `O=C(NC12CC3CC(CC(C3)C1)C2)c1ccc(COc2ccccc2)nc1`, with 0.603 µM.

Turning to `O=C(NC1(c2ccccc2)CCC1)c1ccc(COc2cccc(F)c2)nc1`, the concentration giving a half-maximal response (EC50) turned out to be 0.912 µM. The same measure, in the same setting: with `CC(C)CCNC(=O)c1ccc(COc2ccccc2)nc1` the figure was 0.966 µM; with `C[C@@H](NC(=O)c1ccc(COc2cccc(F)c2)nc1)C1CC1`, 1.06 µM. For `O=C(Nc1nccs1)c1ccc(COc2ccccc2)nc1`, the EC50 was found to be 1.2 µM. As for `COc1cccc(OCc2ccc(C(=O)N[C@H](C)C3CCCCC3)cn2)c1`, the EC50 came out at 1.2 µM. On the same count and under the same terms, with `O=C(NC(C1CC1)C1CC1)c1ccc(COc2cccc(F)c2)nc1` the figure was 1.26 µM; with `O=C(Nc1ccc(F)cn1)c1ccc(COc2ccccc2)nc1`, 1.51 µM. Consider `CC(C)(C)CCNC(=O)c1ccc(COc2cc(F)cc(F)c2)nc1`, for which the 50% effective concentration (EC50) turned out to be 1.58 µM. On the same count and under the same terms, with `CC(C)CNC(=O)c1ccc(COc2ccccc2)nc1` the figure was 1.7 µM; with `O=C(NC(C1CC1)C(F)(F)F)c1ccc(COc2cccc(F)c2)nc1` (stereo not shown), 1.9 µM; with `C[C@@H](NC(=O)c1ccc(COc2ccc(C#N)cc2)nc1)C1CCCCC1`, 2.5 µM. For `C[C@@H](NC(=O)c1ccc(COc2ccncc2)nc1)C1CCCCC1`, the concentration for a half-maximal effect (EC50) stood at 2.6 µM.

`C[C@H](NC(=O)c1ccc(COc2ccccc2)nc1)C1CCCCC1`: the half-maximal effective concentration (EC50) came to 2.88 µM. For `C[C@@H](NC(=O)c1ccc(COc2cccc(F)c2)nc1)C1CCOCC1`, the EC50 was determined as 3.24 µM. Still for that read-out and setting: then `CC[C@@H](C)NC(=O)c1ccc(COc2cccc(F)c2)nc1`, with 3.31 µM. Turning to `O=C(NC1CCC1)c1ccc(COc2cc(F)cc(F)c2)nc1`, the EC50 was 3.39 µM. Same read-out and setting: then `COc1ccccc1OCc1ccc(C(=O)N[C@H](C)C2CCCCC2)cn1`, with 3.4 µM.

Consider `O=C(NC1CCC1)c1ccc(COc2cccc(F)c2)nc1`, for which the EC50 was 3.47 µM. For the molecule `O=C(NC1CCC1)c1ccc(COc2ccccc2)nc1`, the EC50 was found to be 4.68 µM. Same read-out and setting: with `O=C(Nc1ccccn1)c1ccc(COc2ccccc2)nc1` the figure was 5.25 µM.

`COCC(C)NC(=O)c1ccc(COc2cccc(F)c2)nc1` (stereo not shown): the EC50 is greater than 10 µM. Turning to `CC1(C)CC(CNC(=O)c2ccc(COc3cccc(F)c3)nc2)CCO1` (stereo not shown), the EC50 was greater than 10 µM. As to `O=C(Nc1ccncc1)c1ccc(COc2ccccc2)nc1`, the EC50 was greater than 10 µM. Same read-out and setting: then `O=C(Nc1ccc(Cl)cn1)c1ccc(COc2ccccc2)nc1`, with greater than 10 µM; and `O=C(Nc1cccc(F)c1)c1ccc(COc2ccccc2)nc1`, with greater than 10 µM; and `O=C(Nc1ccc(F)cc1)c1ccc(COc2ccccc2)nc1`, with greater than 10 µM. With `O=C(Nc1cc(F)cc(F)c1)c1ccc(COc2ccccc2)nc1`, the EC50 was greater than 10 µM. For the molecule `O=C(Nc1cccc(F)c1F)c1ccc(COc2ccccc2)nc1`, the concentration for a half-maximal effect (EC50) was greater than 10 µM. Regarding `O=C(Nc1ccc(Cl)cc1F)c1ccc(COc2ccccc2)nc1`, the EC50 was greater than 10 µM. Regarding `O=C(Nc1cccc(Cl)c1)c1ccc(COc2ccccc2)nc1`, the half-maximal effective concentration (EC50) is greater than 10 µM. Turning to `O=C(Nc1ccc(Cl)cc1)c1ccc(COc2ccccc2)nc1`, the half-maximal effective concentration (EC50) was greater than 10 µM. Regarding `O=C(Nc1cccc(C(F)(F)F)c1)c1ccc(COc2ccccc2)nc1`, the 50% effective concentration (EC50) was greater than 10 µM. Take `O=C(Nc1ncccc1F)c1ccc(COc2ccccc2)nc1`: the half-maximal effective concentration (EC50) was greater than 10 µM. Same read-out and setting: then `O=C(Nc1nncs1)c1ccc(COc2ccccc2)nc1`, with greater than 10 µM; and `O=C(NCCc1ccc(Cl)cc1)c1ccc(COc2ccccc2)nc1`, with greater than 10 µM. As for `CN(C)CCCNC(=O)c1ccc(COc2ccccc2)nc1`, the EC50 was greater than 10 µM. With `COCCCNC(=O)c1ccc(COc2ccccc2)nc1`, the EC50 is greater than 10 µM.

`O=C(NCCN1CCCCC1)c1ccc(COc2ccccc2)nc1`: the concentration for a half-maximal effect (EC50) was greater than 10 µM. In the case of `O=C(NCCN1CCOCC1)c1ccc(COc2ccccc2)nc1`, the EC50 was greater than 10 µM. Turning to `O=C(NCCCN1CCOCC1)c1ccc(COc2ccccc2)nc1`, the EC50 is greater than 10 µM.

As to `CC(C)NC(=O)c1ccc(COc2ccccc2)nc1`, the EC50 was greater than 10 µM.

As to `COCCNC(=O)c1ccc(COc2ccccc2)nc1`, the half-maximal effective concentration (EC50) is greater than 10 µM. `O=C(NCc1ccccn1)c1ccc(COc2ccccc2)nc1`: the EC50 was greater than 10 µM. Consider `O=C(NCCc1ccccn1)c1ccc(COc2ccccc2)nc1`, for which the EC50 was greater than 10 µM. On to `N#Cc1cc(F)cc(OCc2ccc(C(=O)NC3(c4ccccc4)CCC3)cn2)c1`, for which the concentration for a half-maximal effect (EC50) is greater than 10 µM. `CC(C)NC(=O)c1ccc(COc2cc(F)cc(C#N)c2)nc1`: the EC50 was greater than 10 µM. As to `CC(C)(C)CCNC(=O)c1ccc(COc2cc(F)cc(C#N)c2)nc1`, the EC50 is greater than 10 µM. On to `C[C@H](NC(=O)c1ccc(COc2cc(F)cc(C#N)c2)nc1)C1CCCCC1`, for which the concentration giving a half-maximal response (EC50) was greater than 10 µM.

With `C[C@@H](NC(=O)c1ccc(COc2cc(F)cc(C#N)c2)nc1)C1CCCCC1`, the EC50 is greater than 10 µM.

With `N#Cc1cc(F)cc(OCc2ccc(C(=O)NC3CCC3)cn2)c1`, the EC50 is greater than 10 µM. With `O=C(Nc1nccs1)c1ccc(COc2cc(F)cc(F)c2)nc1`, the concentration for a half-maximal effect (EC50) is greater than 10 µM.

For `O=C(NC1(c2ccccc2)CCC1)c1ccc(COc2cc(F)cc(F)c2)nc1`, the concentration for a half-maximal effect (EC50) was greater than 10 µM.

On to `CC(C)NC(=O)c1ccc(COc2cc(F)cc(F)c2)nc1`, for which the EC50 was greater than 10 µM. For the molecule `O=C(NC1CCCCC1)c1ccc(COc2cc(F)cc(F)c2)nc1`, the concentration for a half-maximal effect (EC50) is greater than 10 µM. Turning to `O=C(Nc1nccs1)c1ccc(COc2cccc(F)c2)nc1`, the 50% effective concentration (EC50) was greater than 10 µM. In the case of `CC(C)NC(=O)c1ccc(COc2cccc(F)c2)nc1`, the concentration giving a half-maximal response (EC50) was greater than 10 µM. With `O=C(NC1(c2ccccc2)CCC1)c1ccc(COc2ccccc2)nc1`, the EC50 was greater than 10 µM.

On to `O=C(NCC1CC1)c1ccc(COc2ccccc2)nc1`, for which the EC50 was greater than 10 µM. On to `O=C(N[C@H](C1CC1)C(F)(F)F)c1ccc(COc2cccc(F)c2)nc1`, for which the EC50 was greater than 10 µM. On the same count and under the same terms, then `C[C@@H](NC(=O)c1ccc(COc2ccccc2Cl)nc1)C1CCCCC1`, with greater than 10 µM; and `C[C@@H](NC(=O)c1ccc(COc2ccccc2C#N)nc1)C1CCCCC1`, with greater than 10 µM; and `C[C@@H](NC(=O)c1ccc(COc2ccccn2)nc1)C1CCCCC1`, with greater than 10 µM.

The experiment is the same for the next values; noted with them: S configuration enantiomer; read-out: mGluR5 potentiator EC50.
Take `C[C@H](NC(=O)c1ccc(COc2cccc(F)c2)nc1)C1CCCCC1` [Example 11b, (S)-N-(1-cyclohexylethyl)-6-((3-fluorophenoxy)methyl)nicotinamide]: the EC50 was greater than 10 µM.
